The values that follow come from patent publication US20230364172A1, “MODULATION OF SOLUBILITY, PALATABILITY, ABSORPTION, AND BIOAVAILABILITY OF MITRAGYNA SPECIOSA-DERIVED COMPOUNDS FOR ORAL AND BUCCAL DELIVERY” (Syncotrance, LLC, priority 2022, published 2023).

Values joined by “and” are separate entries in the source; they are usually repeats but may differ in a detail not shown here. Equal entries are not always repeated. Structures can show the parent of a compound that is named as a salt. Where two headings read alike, the source gives them in different places.

The conditions of series [1]: cited from earlier work.
The conditions of series [2]: rats; cited from earlier work.
For series [3] the following is noted: cited from earlier work. This is another data set of the same source.
The conditions of series [4]: cited from earlier work. The source holds these as a separate data set.
Series [5] in a line: Physicochemical properties of mitragynine (pKa, Log P, aqueous solubility), literature. An excerpt:
Mitragynine is an indole alkaloid comprising 66% of total alkaloids in extracts of Mitragyna speciosa leaves (Adkins, J. E., Boyer, E. W., McCurdy, C. R., 2011. Mitragyna speciosa, a psychoactive tree from Southeast Asia with opioid activity. Curr. Top. Med. Chem. 11, 1165-1175) (Ponglux, D., Wongseripipatana, S., Takayama, H., Kikuchi, M., Kurihara, M., Kitajima, M., Aimi, N., Sakai, S., 1994. A new indole alkaloid, 7 alpha-Hydroxy-7H-mitragynine, from Mitragyna speciosa in Thailand. Planta Med. 60, 580-581.). […] The compound is moderately stable at neutral pH (^˜3.5% degradation after 3 h) but degraded at pH 1.2 (by 26% degradation after 1-2 hr) (Manda, V. K., Avula, B., Ali, Z., Khan, I. A., Walker, L. A., Khan, S. I., 2014. Evaluation of in vitro absorption, distribution, metabolism, and excretion (ADME) properties of mitragynine, 7-hydroxymitragynine, and mitraphylline. Planta Med. 80, 568-576) (Ramanathan, S., Parthasarathy, S., Murugaiyah, V., Magosso, E., Tan, S. C., Mansor, S. M., 2015. Understanding the physicochemical properties of mitragynine, a principal alkaloid of Mitragyna speciosa, for preclinical evaluation. Molecules 20, 4915-4927). […]

For series [6] the following is noted: 1% w/v, 0.1 mM quinine hydrochloride solution; cited from earlier work.
Series [7] is described as follows: Phase separation of Kratom/Premix emulsion by visual observation (Example C).
Series [8] is described as follows: Premix vs water for taste masking of sports nutrition active ingredients (Example M). Conditions: 1.5 g dose in Premix.
Experimental: The supplements were suspended in a premix or water for reference. The active ingredients and their dosages were selected to simulate a sports nutrition drink prepared in a small blender (200 ml volume).
The panelists were asked to rate aversiveness/palatability and provide a brief description of off-flavors.

Regarding `CC[C@@H]1CN2CCc3c([nH]c4cccc(OC)c34)[C@H]2C[C@@H]1/C(=C\OC)C(=O)OC` (stereo in doubt) [mitragynine hydrochloride], in series [1] (rats, oral in comparison to intravenous administration), the “absolute oral bioavailability of mitragynine” value was 17.0%.
Take `CC[C@@H]1CN2CCc3c([nH]c4cccc(OC)c34)[C@@H]2C[C@@H]1/C(=C\OC)C(=O)OC` [Mitragynine]: in series [2], the “% AUCbrain/AUCplasma” value is recorded as 65.8±4.5%. In addition, in series [3], the pKa was 8.1. Besides, the “solubility in aqueous media” value in series [3] (pH 4) is 130 μM and 51.8 μg/ml; in series [3] (pH 7) it was 83 μM and 33.1 μg/ml. The “solubility in a saliva type fluid” value in series [3] (pH 6.5) is listed as 64.6±1.2 μcg/mL. Also, the degradation in series [4] (neutral pH, after 3 h) is about 3.5%; in series [4] (pH 1.2, after 1-2 hr), 26%. The “Biopharmaceutical Classification System (BCS) class” value in series [5] is recorded as “Class II”. Further, the bioavailability in series [1] (oral administration in rats, calculated from other studies by Ya et al.) is reported as about 21%.
On to phosphatidic acid, for which, in series [6], the “bitterness-depressing effect due to adsorption” value is listed as 36.1%, the “bitterness-depressing effect due to suppression at the receptor site” value is on record as 45.6% and the suppression of bitterness is recorded as 81.7%.
In the case of Polysorbate 80, the phase separation result is reported as “separated” in series [7] (Polysorbate 80 0.3% w/v final, added to Final Mix); “separated” in series [7] (Polysorbate 80 0.3% w/v final, added to liquid extract); “separated” in series [7] (Polysorbate 80 0.3% w/v final, added to premix); “separated” in series [7] (Polysorbate 80 0.5% w/v final, added to Final Mix); “stable” in series [7] (Polysorbate 80 0.5% w/v final, added to liquid extract); “separated” in series [7] (Polysorbate 80 0.5% w/v final, added to premix). For the same molecule, the phase separation entry in series [7] (Polysorbate 80 1% w/v final, added to Final Mix) was “separated”; in series [7] (Polysorbate 80 1% w/v final, added to liquid extract), “stable”; in series [7] (Polysorbate 80 1% w/v final, added to premix), “stable”; in series [7] (Polysorbate 80 1.5% w/v final, added to Final Mix), “stable”; in series [7] (Polysorbate 80 1.5% w/v final, added to liquid extract), “stable”; in series [7] (Polysorbate 80 1.5% w/v final, added to premix), “stable”.
Take `NCC(=O)[O-].NCC(=O)[O-].[Mg+2]` [Magnesium Glycinate]: the “pH in Premix” value in series [8] is reported as “flavors. pH 10.3 caused”.
